Source: US20260262643A1, “HERBICIDAL BENZOXAZINES” (FMC CORPORATION, priority 2022, published 2026)

Columns and labels:
[1] = tested on: sedge, umbrella; assay: Test D flooded paddy test; type: in vivo, Cyperus difformis; details: 250 g ai/ha, applied to paddy water, visual rating after 13 to 14 days, scale 0 to 100 (0 no effect, 100 complete control)
Procedure, shortened: (§1)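 Post-flood water application at the 2-leaf stage; 3 cm flood depth kept constant; visual control rating 0–100 after 13–14 days greenhouse growth.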

[2] = tested on: ryegrass, Italian; assay: Test C postemergence; type: in vivo, Lolium multiflorum; details: 10 days
Procedure, shortened: (§2)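 Visual injury score, 0–100 (100 = complete control), taken 10 days after treatment relative to untreated controls. Pre: directed spray onto soil over sown seeds. Post: foliar spray at one- to two-leaf stage, 2–10 cm. Solvent/surfactant formulation; loam–sand soil; greenhouse.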

[3] = tested on: soybean; assay: Test C postemergence; type: in vivo, Glycine max; details: 10 days
Procedure, shortened: as §2

[4] = tested on: ragweed; assay: Test C preemergence; type: in vivo, Ambrosia artemisiifolia; details: 0 to 100 scale (0 no effect, 100 complete control); for Ragweed plant response rating: preemergence
Procedure, shortened: as §2

[5] = tested on: kochia; assay: Test C postemergence; type: in vivo, Bassia scoparia; details: 10 days
Procedure, shortened: as §2

[6] = tested on: oat, wild; assay: Test C preemergence; type: in vivo, Avena fatua; details: 0 to 100 scale (0 no effect, 100 complete control); for Oat, Wild plant response rating: preemergence
Procedure, shortened: as §2

[7] = tested on: wheat; assay: Test C preemergence; type: in vivo, Triticum aestivum; details: 0 to 100 scale (0 no effect, 100 complete control); for Wheat plant response rating: preemergence
Procedure, shortened: as §2

[8] = tested on: galium; assay: Test C postemergence; type: in vivo, Galium aparine; details: 10 days
Procedure, shortened: as §2

[9] = tested on: oat, wild; assay: Test C postemergence; type: in vivo, Avena fatua; details: 10 days
Procedure, shortened: as §2

[10] = tested on: goosegrass; assay: Test C preemergence; type: in vivo, Eleusine indica; details: 0 to 100 scale (0 no effect, 100 complete control); for Goosegrass plant response rating: preemergence
Source text: (§3) Seeds of plant species selected from barnyardgrass (Echinochloa crusgalli), blackgrass (Alopecurus myosuroides), corn (Zea mays), foxtail, giant (giant foxtail, Setaria faberi), green foxtail (Setaria viridis), goosegrass (Eleusine indica), kochia (Bassia scoparia), oat, wild (wild oat, Avena fatua), pigweed, palmer (palmer amaranth, palmer pigweed, Amaranthus palmeri), Pigweed, Redroot (redroot pigweed, Amaranthus retroflexus), ragweed (common ragweed, Ambrosia artemisiifolia), ryegrass, Italian ([…] ryegrass, Lolium multiflorum), soybean (Glycine max), and wheat (Triticum aestivum) were planted into a blend of loam soil and sand and treated preemergence with a directed soil spray using test chemicals formulated in a non-phytotoxic solvent mixture which included a surfactant. At the same time, plants selected from these crops and weed species and also galium (catchweed bedstraw, Galium aparine) and horseweed (Erigeron canadensis) were planted in pots containing the same blend of loam soil and sand and treated with postemergence applications of test chemicals formulated in the same manner. Plants ranged in height from 2 to 10 cm and were in the one- to two-leaf stage for the postemergence treatment. Treated plants and untreated controls were maintained in a greenhouse for 10 days, after which time all treated plants were compared to untreated controls and visually evaluated for injury. Plant response ratings, summarized in Table C, are based on a 0 to 100 scale where 0 is no effect and 100 is complete control. A dash (-) response means no test result.

[11] = tested on: foxtail, giant; assay: Test C preemergence; type: in vivo, Setaria faberi; details: 0 to 100 scale (0 no effect, 100 complete control); for Foxtail, Giant plant response rating: preemergence
Procedure, shortened: as §2

[12] = tested on: foxtail, giant; assay: Test C postemergence; type: in vivo, Setaria faberi; details: 10 days
Procedure, shortened: as §2

[13] = tested on: corn; assay: Test C preemergence; type: in vivo, Zea mays; details: 0 to 100 scale (0 no effect, 100 complete control); for Corn plant response rating: preemergence
Procedure, shortened: as §2

[14] = tested on: ryegrass, Italian; assay: Test C preemergence; type: in vivo, Lolium multiflorum; details: 0 to 100 scale (0 no effect, 100 complete control); for Ryegrass, Italian plant response rating: preemergence
Procedure, shortened: as §2

[15] = tested on: blackgrass; assay: Test C postemergence; type: in vivo, Alopecurus myosuroides; details: 10 days
Procedure, shortened: as §2

[16] = tested on: horseweed; assay: Test C postemergence; type: in vivo, Erigeron canadensis; details: 10 days
Procedure, shortened: as §2

[17] = tested on: barnyardgrass; assay: Test D flooded paddy test; type: in vivo, Echinochloa crus-galli; details: 250 g ai/ha, applied to paddy water, visual rating after 13 to 14 days, scale 0 to 100 (0 no effect, 100 complete control)
Procedure, shortened: as §1

[18] = tested on: corn; assay: Test C postemergence; type: in vivo, Zea mays; details: 10 days
Procedure, shortened: as §2

[19] = tested on: ragweed; assay: Test C postemergence; type: in vivo, Ambrosia artemisiifolia; details: 10 days
Procedure, shortened: as §2

[20] = tested on: pigweed, palmer; assay: Test C postemergence; type: in vivo, Amaranthus palmeri; details: 10 days
Procedure, shortened: as §2

[21] = tested on: pigweed, palmer; assay: Test C preemergence; type: in vivo, Amaranthus palmeri; details: 0 to 100 scale (0 no effect, 100 complete control); for Pigweed, Palmer plant response rating: preemergence
Procedure, shortened: as §2

[22] = tested on: goosegrass; assay: Test C postemergence; type: in vivo, Eleusine indica; details: 10 days
Source text: as §3

[23] = tested on: blackgrass; assay: Test C preemergence; type: in vivo, Alopecurus myosuroides; details: 0 to 100 scale (0 no effect, 100 complete control); for Blackgrass plant response rating: preemergence
Procedure, shortened: as §2

[24] = tested on: wheat; assay: Test C postemergence; type: in vivo, Triticum aestivum; details: 10 days
Procedure, shortened: as §2

[25] = tested on: ducksalad; assay: Test D flooded paddy test; type: in vivo, Heteranthera limosa; details: 250 g ai/ha, applied to paddy water, visual rating after 13 to 14 days, scale 0 to 100 (0 no effect, 100 complete control)
Procedure, shortened: as §1

[26] = tested on: soybean; assay: Test C preemergence; type: in vivo, Glycine max; details: 0 to 100 scale (0 no effect, 100 complete control); for Soybean plant response rating: preemergence
Procedure, shortened: as §2

[27] = tested on: rice; assay: Test D flooded paddy test; type: in vivo, Oryza sativa; details: 250 g ai/ha, applied to paddy water, visual rating after 13 to 14 days, scale 0 to 100 (0 no effect, 100 complete control)
Procedure, shortened: as §1

[28] = tested on: kochia; assay: Test C preemergence; type: in vivo, Bassia scoparia; details: 0 to 100 scale (0 no effect, 100 complete control)
Procedure, shortened: as §2

[29] = 125 g ai/ha, postemergence, 0 to 100 scale, 0 no effect, 100 complete control
[30] = 500 g ai/ha, postemergence, 0 to 100 scale (0 no effect, 100 complete control)
[31] = Postemergence, 500 g ai/ha, visual 0 to 100 scale (0 no effect, 100 complete control)
[32] = Preemergence, 500 g ai/ha, visual rating after 10 days

CC1Oc2ccccc2N(C(=O)c2cccc(-n3cncn3)c2)C1C (stereo not drawn) [Compound 285]
10: Plant response rating, Soybean [3, 30]
0%: pest or weed control at 125 g/ha ([15]; Alopecurus myosuroides, post-emergence, 240 h, 125 g ai/ha, postemergence, 0 to 100 scale (0 no effect, 100 complete control), read-out: Plant response rating, Blackgrass) | pest or weed control at 500 g/ha ([15]; Alopecurus myosuroides, post-emergence, 240 h, 500 g ai/ha, postemergence, 0 to 100 scale (0 no effect, 100 complete control), read-out: Plant response rating, Blackgrass) | Corn plant response rating (crop injury, 0 = no effect, 100 = complete kill) at 125 g/ha ([18]; Zea mays, post-emergence, 240 h, 125 g ai/ha, postemergence, 0 to 100 scale (0 no effect, 100 complete control)) | Corn plant response rating (crop injury, 0 = no effect, 100 = complete kill) at 500 g/ha ([18]; Zea mays, post-emergence, 240 h, 500 g ai/ha, postemergence, 0 to 100 scale (0 no effect, 100 complete control))
0: Plant response rating, Sedge, Umbrella (Flood) [1] | Plant response rating, Ryegrass, Italian [2, 29] | Plant response rating, Ryegrass, Italian [2, 30] | Plant response rating, Soybean [3, 29] | Ragweed plant response rating ([4]; 500 g ai/ha) | Ragweed plant response rating ([4]; Test C, 125 g ai/ha) | Plant response rating, Kochia [5, 29] | Plant response rating, Kochia [5, 30] | Oat, Wild plant response rating ([6]; 500 g ai/ha) | Oat, Wild plant response rating ([6]; Test C, 125 g ai/ha) | Wheat plant response rating ([7]; 500 g ai/ha) | Wheat plant response rating ([7]; Test C, 125 g ai/ha) | Plant response rating, Galium [8, 29] | Plant response rating, Oat, Wild [9, 29] | Plant response rating, Oat, Wild [9, 30] | Goosegrass plant response rating ([10]; 500 g ai/ha) | Goosegrass plant response rating ([10]; Test C, 125 g ai/ha) | Foxtail, Giant plant response rating ([11]; 500 g ai/ha) | Foxtail, Giant plant response rating ([11]; Test C, 125 g ai/ha) | Plant response rating, Foxtail, Giant [12, 29] | Plant response rating, Foxtail, Giant [12, 30] | Corn plant response rating ([13]; 500 g ai/ha) | Corn plant response rating ([13]; Test C, 125 g ai/ha) | Plant response rating, Horseweed [16, 29] | Plant response rating, Horseweed [16, 30] | Plant response rating, Barnyardgrass (Flood) [17] | Plant response rating, Ragweed [19, 29] | Plant response rating, Ragweed [19, 30] | Plant response rating, Pigweed, Palmer [20, 29] | Plant response rating, Pigweed, Palmer [20, 30] | Pigweed, Palmer plant response rating ([21]; 500 g ai/ha) | Pigweed, Palmer plant response rating ([21]; Test C, 125 g ai/ha) | Plant response rating, Goosegrass [22, 29] | Plant response rating, Goosegrass [22, 30] | Blackgrass plant response rating ([23]; 500 g ai/ha) | Blackgrass plant response rating ([23]; Test C, 125 g ai/ha) | Plant response rating, Wheat [24, 29] | Plant response rating, Wheat [24, 30] | Plant response rating, Ducksalad (Flood) [25] | Soybean plant response rating ([26]; 500 g ai/ha) | Soybean plant response rating ([26]; Test C, 125 g ai/ha) | Plant response rating, Rice (Flood) [27]
20: Ryegrass, Italian plant response rating ([14]; Test C, 125 g ai/ha)
30: Plant response rating, Galium [8, 30] | Ryegrass, Italian plant response rating ([14]; 500 g ai/ha)

Cc1cccc2c1OC(C)CN2C(=O)c1cccc(-n2ncnc2C2CC2)c1 (racemic) [Compound 196]
20: Plant response rating, Corn [13, 32]
30: Plant response rating, Pigweed, Palmer [20, 29]
0: Plant response rating, Sedge, Umbrella (Flood) [1] | Plant response rating, Ryegrass, Italian [2, 29] | Plant response rating, Ryegrass, Italian [2, 31] | Plant response rating, Soybean [3, 29] | Plant response rating, Soybean [3, 31] | Plant response rating, Ragweed [4, 32] | Ragweed plant response rating ([4]; Test C, 125 g ai/ha) | Plant response rating, Kochia [5, 29] | Plant response rating, Kochia [5, 31] | Plant response rating, Oat, Wild [6, 32] | Oat, Wild plant response rating ([6]; Test C, 125 g ai/ha) | Plant response rating, Wheat [7, 32] | Wheat plant response rating ([7]; Test C, 125 g ai/ha) | Plant response rating, Galium [8, 29] | Plant response rating, Galium [8, 31] | Plant response rating, Oat, Wild [9, 29] | Plant response rating, Oat, Wild [9, 31] | Plant response rating, Goosegrass [10, 32] | Goosegrass plant response rating ([10]; Test C, 125 g ai/ha) | Plant response rating, Foxtail, Giant [11, 32] | Foxtail, Giant plant response rating ([11]; Test C, 125 g ai/ha) | Plant response rating, Foxtail, Giant [12, 29] | Plant response rating, Foxtail, Giant [12, 31] | Corn plant response rating ([13]; Test C, 125 g ai/ha) | Plant response rating, Ryegrass, Italian [14, 32] | Ryegrass, Italian plant response rating ([14]; Test C, 125 g ai/ha) | Plant response rating, Blackgrass [15, 29] | Plant response rating, Blackgrass [15, 31] | Plant response rating, Horseweed [16, 29] | Plant response rating, Horseweed [16, 31] | Plant response rating, Barnyardgrass (Flood) [17] | Plant response rating, Kochia [28, 32] | Kochia plant response rating ([28]; Test C, preemergence, 125 g ai/ha) | Plant response rating, Corn [18, 29] | Plant response rating, Corn [18, 31] | Plant response rating, Ragweed [19, 29] | Plant response rating, Ragweed [19, 31] | Plant response rating, Pigweed, Palmer [20, 31] | Plant response rating, Pigweed, Palmer [21, 32] | Pigweed, Palmer plant response rating ([21]; Test C, 125 g ai/ha) | Plant response rating, Goosegrass [22, 29] | Plant response rating, Goosegrass [22, 31] | Plant response rating, Blackgrass [23, 32] | Blackgrass plant response rating ([23]; Test C, 125 g ai/ha) | Plant response rating, Wheat [24, 29] | Plant response rating, Wheat [24, 31] | Plant response rating, Ducksalad (Flood) [25] | Plant response rating, Soybean [26, 32] | Soybean plant response rating ([26]; Test C, 125 g ai/ha) | Plant response rating, Rice (Flood) [27]
